Experimental data reported in US20210198204A1, “PRODRUGS OF KALLIKREIN INHIBITORS” (BioCryst Pharmaceuticals, Inc., priority 2016, published 2021).

Assay: Plasma pharmacokinetics of the parent compound after a single oral dose of prodrug
Type: in vivo
Conditions: single oral dose 10 mg/kg, fasted male Sprague Dawley rats; plasma analyzed for the parent compound; study duration 8 h
In short: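 Three male Sprague Dawley rats, housed in metabolic cages and fasted about 15 hours, were weighed and received one oral gavage dose of 10 mg/kg as a solution in water or water/propylene glycol. Blood (approximately 500 μL) went into heparin tubes at set timepoints up to the study duration. Plasma was separated by centrifugation at 14,000 rpm for 3 min at 4° C, stored below −70° C, and assayed for the parent compound.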

| AUC0-last hour (area under the curve) | Compound |
| --- | --- |
| B (B = 1,001-10,000 ng/mL) | C=Cc1cc(C(=O)Nc2ccc(C(=N)NC(=O)OCOC(=O)[C@@H](N)C(C)C)cc2)c(-c2ccc(C(=O)NCC3CC3)nc2C(=O)OCOC(=O)[C@@H](N)C(C)C)cc1OC [Compound 74e, (((S)-2-amino-3-methylbutanoyl)oxy)methyl 3-(2-((4-(N—(((((S)-2-amino-3-methylbutanoyl)oxy)methoxy)carbonyl)carbamimidoyl)phenyl)carbamoyl)-5-methoxy-4-vinylphenyl)-6-((cyclopropylmethyl)carbamoyl)picolinate] |
| B (B = 1,001-10,000 ng/mL) | C=Cc1cc(C(=O)Nc2ccc(C(=N)NC(=O)OCCN3CCOCC3)cc2)c(-c2ccc(C(=O)NCC3CC3)nc2C(=O)OC(C)OC(=O)C(C)C)cc1OC (centres unmarked) [Compound 75c, 1-(isobutyryloxy)ethyl 6-((cyclopropylmethyl)carbamoyl)-3-(5-methoxy-2-((4-(N-((2-morpholinoethoxy)carbonyl)carbamimidoyl)phenyl)carbamoyl)-4-vinylphenyl)picolinate] |
| B (B = 1,001-10,000 ng/mL) | C=Cc1cc(C(=O)Nc2ccc(C(=N)NC(=O)OCC3COC(C)(C)O3)cc2)c(-c2ccc(C(=O)NCC3CC3)nc2C(=O)OC(C)OC(=O)OC(C)C)cc1OC (centres unmarked) [Compound 77c, 1-((isopropoxycarbonyl)oxy)ethyl 6-((cyclopropylmethyl)carbamoyl)-3-(2-((4-(N-(((2,2-dimethyl-1,3-dioxolan-4-yl)methoxy)carbonyl)carbamimidoyl)phenyl)carbamoyl)-5-methoxy-4-vinylphenyl)picolinate] |
| C (C >10,000 ng/mL) | C=Cc1cc(C(=O)Nc2ccc(C(=N)NC(=O)OCCOCC)cc2)c(-c2ccc(C(=O)NCC3CC3)nc2C(=O)OC(C)OC(=O)C(C)C)cc1OC (centres unmarked) [Compound 80c, 1-(isobutyryloxy)ethyl 6-((cyclopropylmethyl)carbamoyl)-3-(2-((4-(N-((2-ethoxyethoxy)carbonyl)carbamimidoyl)phenyl)carbamoyl)-5-methoxy-4-vinylphenyl)picolinate] |
| A (A = 0-1,000 ng/mL) | C=Cc1cc(C(=O)Nc2ccc(C(=N)NC(=O)OCCCCCC)cc2)c(-c2ccc(C(=O)NCC3CC3)nc2C(=O)OC(C)OC(=O)NC(C)C)cc1OC (centres unmarked) [Compound 81d, 1-((isopropylcarbamoyl)oxy)ethyl 6-((cyclopropylmethyl)carbamoyl)-3-(2-((4-(N-((hexyloxy)carbonyl)carbamimidoyl)phenyl)carbamoyl)-5-methoxy-4-vinylphenyl)picolinate] |
| B (B = 1,001-10,000 ng/mL) | C=Cc1cc(C(=O)Nc2ccc(C(=N)NC(=O)OCCOCCC)cc2)c(-c2ccc(C(=O)NCC3CC3)nc2C(=O)OC(C)OC(=O)OC(C)C)cc1OC (centres unmarked) [Compound 83c, 1-((isopropoxycarbonyl)oxy)ethyl 6-((cyclopropylmethyl)carbamoyl)-3-(5-methoxy-2-((4-(N-((2-propoxyethoxy)carbonyl)carbamimidoyl)phenyl)carbamoyl)-4-vinylphenyl)picolinate] |
| A (A = 0-1,000 ng/mL) | C=Cc1cc(C(=O)Nc2ccc(C(=N)NC(=O)OCC(O)CO)cc2)c(-c2ccc(C(=O)NCC3CC3)nc2C(=O)OC(C)OC(=O)OC(C)C)cc1OC (centres unmarked) [Compound 84a, 1-((isopropoxycarbonyl)oxy)ethyl 6-((cyclopropylmethyl)carbamoyl)-3-(2-((4-(N-((2,3-dihydroxypropoxy)carbonyl)carbamimidoyl)phenyl)carbamoyl)-5-methoxy-4-vinylphenyl)picolinate] |
| A (A = 0-1,000 ng/mL) | C=Cc1cc(C(=O)Nc2ccc(C(=N)NC(=O)OCCO)cc2)c(-c2ccc(C(=O)NCC3CC3)nc2C(=O)OC(C)OC(=O)C(C)C)cc1OC (centres unmarked) [Compound 85d, 1-(isobutyryloxy)ethyl 6-((cyclopropylmethyl)carbamoyl)-3-(2-((4-(N-((2-hydroxyethoxy)carbonyl)carbamimidoyl)phenyl)carbamoyl)-5-methoxy-4-vinylphenyl)picolinate] |
| B (B = 1,001-10,000 ng/mL) | C=Cc1cc(C(=O)Nc2ccc(C(=N)NC(=O)OCCCCCC)cc2)c(-c2ccc(C(=O)NCC3CC3)nc2C(=O)OC(C)OC(=O)OCC2COC(C)(C)O2)cc1OC (centres unmarked) [Compound 87a, 1-((((2,2-dimethyl-1,3-dioxolan-4-yl)methoxy)carbonyl)oxy)ethyl 6-((cyclopropylmethyl)carbamoyl)-3-(2-((4-(N-((hexyloxy)carbonyl)carbamimidoyl)phenyl)carbamoyl)-5-methoxy-4-vinylphenyl)picolinate] |
| A (A = 0-1,000 ng/mL) | C=Cc1cc(C(=O)Nc2ccc(C(=N)NC(=O)OCCCCCC)cc2)c(-c2ccc(C(=O)NCC3CC3)nc2C(=O)OC(C)OC(=O)N(C)C)cc1OC (centres unmarked) [Compound 90d, 1-((dimethylcarbamoyl)oxy)ethyl 6-((cyclopropylmethyl)carbamoyl)-3-(2-((4-(N-((hexyloxy)carbonyl)carbamimidoyl)phenyl)carbamoyl)-5-methoxy-4-vinylphenyl)picolinate] |
| A (A = 0-1,000 ng/mL) | C=Cc1cc(C(=O)Nc2ccc(C(=N)NC(=O)OCCCCCC)cc2)c(-c2ccc(C(=O)NCC3CC3)nc2C(=O)OC(C)OC(=O)N[C@H](C(=O)OCC)[C@@H](C)CC)cc1OC (stereo partly drawn) [Compound 91d, 1-((((2S,3S)-1-ethoxy-3-methyl-1-oxopentan-2-yl)carbamoyl)oxy)ethyl 6-((cyclopropylmethyl)carbamoyl)-3-(2-((4-(N-((hexyloxy)carbonyl)carbamimidoyl)phenyl)carbamoyl)-5-methoxy-4-vinylphenyl)picolinate] |
| A (A = 0-1,000 ng/mL) | C=Cc1cc(C(=O)Nc2ccc(C(=N)NC(=O)OCCC[C@H](O)C(=O)O)cc2)c(-c2ccc(C(=O)NCC3CC3)nc2C(=O)OC(C)OC(=O)C(C)C)cc1OC (stereo partly drawn) [Compound 92a, (2S)-5-((((4-(2-(6-((cyclopropylmethyl)carbamoyl)-2-((1-(isobutyryloxy)ethoxy)carbonyl)pyridin-3-yl)-4-methoxy-5-vinylbenzamido)phenyl)(imino)methyl)carbamoyl)oxy)-2-hydroxypentanoic acid] |
| B (B = 1,001-10,000 ng/mL) | C=Cc1cc(C(=O)Nc2ccc(C(=N)NC(=O)OCCCCCO)cc2)c(-c2ccc(C(=O)NCC3CC3)nc2C(=O)OC(C)OC(=O)C(C)C)cc1OC (centres unmarked) [Compound 94e, 1-(isobutyryloxy)ethyl 6-((cyclopropylmethyl)carbamoyl)-3-(2-((4-(N-(((5-hydroxypentyl)oxy)carbonyl)carbamimidoyl)phenyl)carbamoyl)-5-methoxy-4-vinylphenyl)picolinate] |
| B (B = 1,001-10,000 ng/mL) | C=Cc1cc(C(=O)Nc2ccc(C(=N)NC(=O)OC(C)CO)cc2)c(-c2ccc(C(=O)NCC3CC3)nc2C(=O)OC(C)OC(=O)OC(C)C)cc1OC (centres unmarked) [Compound 95e, 1-((isopropoxycarbonyl)oxy)ethyl 6-((cyclopropylmethyl)carbamoyl)-3-(2-((4-(N-(((1-hydroxypropan-2-yl)oxy)carbonyl)carbamimidoyl)phenyl)carbamoyl)-5-methoxy-4-vinylphenyl)picolinate] |
